This is an account of results in article PMC2360155, “Novel retinoic acid metabolism blocking agents have potent inhibitory activities on human breast cancer cells and tumour growth” (British Journal of Cancer, 2007).

For experiment [1], the system named is MCF-7Ca tumour xenografts. Briefly: In vivo antitumour study, MCF-7Ca tumour xenografts. The conditions noted are these: for Prevention of formation of MCF-7Ca tumours (in words): 20 mg kg^−1 day^−1 from the day after inoculation. Also on record: species or system ovariectomised female athymic nude mice. The protocol:
The third in vivo antitumour experiment was conducted with MCF-7Ca tumours. MCF-7Ca were provided by Dr S Chen (City of Hope, Duarte, CA, USA). The tumour xenografts were grown in mice as described previously ([Yue et al, 1994]). Subconfluent cells were scraped into Delbecco's phosphate-buffered saline, collected by centrifugation and resuspended in Matrigel (10 mg ml^−1) at 2.5 × 10^7 cells ml^−1. Each mouse received s.c. inoculations in two sites per flank with 100 μl of cell suspension. Mice in the tumour formation prevention group (n=5) were than injected daily with androstenedione (100 μg day^−1) plus VN/14-1 (20 mg kg^−1 day^−1) in the vehicle for the duration of the experiment. The rest of the mice were injected daily with 100 μg day^−1 of androstenedione. Measurements and treatments began when the tumours reached approximately 300 mm^3, about 6 weeks after cell inoculation. Mice were assigned to groups for treatment so that there was no statistically significant difference in tumour volumes among the groups at the beginning of the treatment. Tumours were measured and volumes calculated as described above. Mice were than injected s.c. daily with the indicated agents: 100 μg per mouse per day (5 × weekly) plus 10 μg per mouse per day (5 × weekly) of letrozole or 200 μg per mouse per day (5 × weekly) of anastrozole and 20 mg kg^−1 day^−1 (5 × weekly) of VN/14-1. The doses of letrozole, anastrozole, androstendione and VN/14-1 used are as determined previously ([Long et al, 2002], [2004]; [Patel et al, 2004]). The mice were treated for the indicated times, after which they were killed by decapitation and blood collected. Tumours and uteri were excised, cleaned, weighed and stored at −80°C for additional analyses.
Figure 10 Effects of VN/14-1 on the formation of MCF-7Ca tumours and effects of VN/14-1, anastrozole and letrozole on the growth of MCF-7Ca xenografts in ovariectomised female athymic nude mice. Mice were inoculated with MCF-7Ca cells as described in Materials and Methods. Beginning on the following day, androstendione (100 μg per mouse per day) was supplemented by s.c. injection for the duration of the experiment. For the tumour formation prevention group (n=5), VN/14-1 (20 mg kg^−1 day^−1) treatment began from the day after inoculation. For the other groups (VN/14-1, anastrazole and letrozole), treatment began after the tumour had reached approximately 300 mm^3 following procedures described in Materials and Methods.

Experiment [2] relates to MDA-MB-231 cells. Also noted: method as in Patel et al. (2004). Particulars: inhibition of cell proliferation by 50%; ref Patel et al. (2004); read-out: Cellular IC50, MDA-MB-231; cited from earlier work.

In general, IC50 refers to the concentration at which inhibition is half-maximal.

“Also recorded” adds a separate entry of the source.

Regarding `CC1=C(/C=C/C(C)=C/C=C/C(C)=C/C(=O)O)C(C)(C)CCC1n1ccnc1` (centres unmarked) [VN/14-1], the “Prevention of formation of MCF-7Ca tumours (in words)” value in experiment [1] was “very effective in preventing the formation of MCF-7Ca tumours”; in experiment [1] (listed as VN14-1), “efficacious in preventing the formation of MCF-7Ca tumours”. Also, the “Inhibition of growth of established MCF-7Ca tumours (in words)” value in experiment [1] (20 mg kg^−1 day^−1 s.c. (5 × weekly), androstenedione supplemented) was “as effective as the clinically used aromatase inhibitors, anastrozole and letrozole; also recorded: as effective as either anastrozole or letrozole”. Besides, in experiment [1] (VN/14-1 treatment, data not shown), the Uterine wet weight result is listed as “significant reduction in uterine wet weight”.

Take `CC1=C(/C=C/C(C)=C/C=C/C(C)=C/C(=O)Nc2ccc(O)cc2)C(C)(C)CCC1n1ccnc1` (centres unmarked) [VN/66-1]: the IC50 in experiment [2] is 5.62 µM.
